Data as given in patent US11530514B2, “Method for manufacturing a fibrous web” (Kemira Oyj, priority 2017, dated 2022).
Counter-ions that a name gives are not always drawn.

What was measured:
Assay type in all cases: cell-based
aerobic spores [1] = assay: Example 1: aerobic spore count in spiked paper machine water/broke at variable pulp consistency; settings: for Spore reduction (%): DGH 100 mg/L as active vs no addition; for Aerobic spores, cfu/ml (+82° C., 10 min, +32° C., 2 d PCA): DGH 100 mg/L as active, 30 min, 45° C.
Text: (§1) Objective of this laboratory test was to study bacterial killing and spore sensitisation effect of a germinant surfactant composition comprising 35 weight-% of dodecylguanidine hydrochloride (DGH) and dipropyleneglycol as solvent in paper machine process water, at variable pulp consistency.
(§2) Authentic circulation water, with low fibre content, and authentic broke, with high fibre content, were collected from a paper machine, which produced food packaging board. Circulation water and broke samples were mixed together to obtain 6 samples in total, at 3 different pulp consistency levels.
(§3) To obtain equal bacterial spore content in the samples at the start of the experiment, each sample was spiked with additional bacterial spores. Target spore level in the sample was set to ca. 10 000 CFU/ml. The spore solution for spiking was prepared as follows: authentic spore-forming bacteria that were isolated from a paper making process were pre-grown for 2 days at +37° C. in a modified nutrient broth, after which the mature spores were harvested, and washed by using centrifugation and cold water.
(§4) Out of the 6 samples, 3 test samples were treated with germinant surfactant comprising dodecylguanidine hydrochloride (DGH) and 3 samples were left without any chemical addition as reference samples. After addition of germinant surfactant, the test samples as well as the reference samples (no addition) were stored at 45° C., mixing of 180 rpm, for 30 minutes, followed by quantification of total aerobic bacteria (non-pasteurized samples) and aerobic spores (plate count agar, +32° C., 2 days incubation). Prior to the aerobic spore determination, samples were pasteurized at +82° C. for 10 min. Weight of suspended solids per litre of liquid, i.e. pulp consistency, was determined at the end of the test (dry weight of sample per total weight of sample).

total aerobic bacteria [2] = assay: Example 2: total aerobes count in stagnant 2 d old broke diluted with circulation water; settings: DGH 70 mg/l active 5 min, total contact time 35 min, +45° C., untreated 9×10^6 CFU/ml
Protocol: (§5) Authentic broke and circulation water samples were collected from an alkaline paper mill producing food packaging board. 1 litre of broke was stored for 2 days, +45° C., with closed cap, without mixing, in order to induce anaerobism and thus bacterial sporulation. This stagnant sample was divided to four 100 ml samples, out of which two replicate samples were treated with a germinant surfactant comprising 35 weight-% dodecylguanidine hydrochloride (DGH) and dipropyleneglycol as solvent. The dosage was 70 mg/L as active DGH. Two replicates were left without any chemical additions as reference samples.
(§6) After chemical contact time of 5 min, all samples were diluted three times with the circulation water and incubated for 30 minutes, at +45° C., mixing of 160 rpm. Total aerobes (PCA, +37° C.) and aerobic spores (PCA, +37° C.) were measured at start from reference samples and after the total contact time of 35 min from all samples.

aerobic spores [3] = assay: Example 3: aerobic spore count in spiked paper machine process water, biocidal pre-treatment
Protocol: (§7) Objective of this laboratory test was to study effect of biocidal pre-treatment on bacterial killing and spore sensitisation efficacy of a germinant surfactant comprising 35 weight-% of dodecylguanidine hydrochloride (DGH) and dipropyleneglycol as solvent in paper machine process water.
Authentic circulation water (1 litre) was collected from a paper machine producing food packaging board and divided into 4 samples with volume of 50 ml. To obtain equal bacterial spore content in the samples at start of the experiment, each sample was spiked with additional bacterial spores. The target level for spores was c.a. 10 000 CFU/ml. The spore solution for spiking was prepared as follows: authentic spore-forming bacteria that were isolated from a paper making process were pre-grown for 2 days at +37° C. in modified nutrient broth, after which the mature spores were harvested, and washed by using centrifugation and cold water. Out of the 4 samples, • the first sample was left without any chemical addition as a reference sample. • the second sample was treated with sodium hypochlorite, at dosage of 5 mg/I, given as active chlorine; • the third sample was treated with a germinant surfactant comprising dodecylguanidine hydrochloride (DGH), at dosage level of 100 mg/I, given as active compound; and • the fourth sample was treated with sodium hypochlorite, at dosage of 5 mg/I, given as active chlorine) for 1 minute, after which the […] sample was treated with a germinant surfactant comprising dodecylguanidine hydrochloride (DGH), at dosage level of 100 mg/I, given as active compound;
Samples were stored at 45° C., under mixing of 180 rpm, for 30 minutes except samples 2 and 4, which were in addition pre-treated with sodium hypochlorite for 1 minute. After the treatment the amount of total aerobic bacteria (non-pasteurized samples) and aerobic spores were quantified (plate count agar, +32° C., 2 days incubation). Prior to the aerobic spore determination, samples were pasteurized at +82° C. for 10 min.

total aerobic bacteria [4] = assay: Example 3: total aerobic bacteria count in paper machine process water, biocidal pre-treatment; settings: sodium hypochlorite 5 ppm as active chlorine (1 min pre-treatment) and/or DGH 100 ppm as active, untreated 7 000 000
Protocol: as §7
Authentic circulation water (1 litre) was collected from a paper machine producing food packaging board and divided into 4 samples with volume of 50 ml. To obtain equal bacterial spore content in the samples at start of the experiment, each sample was spiked with additional bacterial spores. The target level for spores was c.a. 10 000 CFU/ml. The spore solution for spiking was prepared as follows: authentic spore-forming bacteria that were isolated from a paper making process were pre-grown for 2 days at +37° C. in modified nutrient broth, after which the mature spores were harvested, and washed by using centrifugation and cold water. […]
Samples were stored at 45° C., under mixing of 180 rpm, for 30 minutes except samples 2 and 4, which were in addition pre-treated with sodium hypochlorite for 1 minute. After the treatment the amount of total aerobic bacteria (non-pasteurized samples) and aerobic spores were quantified (plate count agar, +32° C., 2 days incubation). […]

aerobic spores [5] = assay: Example 2: aerobic spore count in stagnant 2 d old broke diluted with circulation water
Protocol: as §5, §6

total aerobic bacteria [6] = assay: Example 1: total aerobic bacteria count in paper machine water/broke at variable pulp consistency; settings: for Bacterial killing efficacy (%): DGH 100 mg/L as active vs no addition; for Total aerobic bacteria (+32° C., 2 d PCA): DGH 100 mg/L as active, 30 min, 45° C.
Text: as §1, §2, §3, §4

SMILES	spore reduction (aerobic spores [1]; process streams with different pulp consistencies (summary of Example 1)) [%]	Spore reduction (%) (aerobic spores [1]; pulp consistency 0.1 w/w-%)	Aerobic spores, cfu/ml (+82° C., 10 min, +32° C., 2 d PCA) (aerobic spores [1]; pulp consistency 0.1 w/w-%) [cfu/ml]	Spore reduction (%) (aerobic spores [1]; pulp consistency 3 w/w-%)	Aerobic spores, cfu/ml (+82° C., 10 min, +32° C., 2 d PCA) (aerobic spores [1]; pulp consistency 3 w/w-%) [cfu/ml]	Spore reduction (%) (aerobic spores [1]; pulp consistency 6 w/w-%)	Aerobic spores, cfu/ml (+82° C., 10 min, +32° C., 2 d PCA) (aerobic spores [1]; pulp consistency 6 w/w-%)	total aerobic bacteria level (total aerobic bacteria [2])	spore reduction (aerobic spores [3]; DGH 100 mg/l active, with or without sodium hypochlorite 5 mg/l pre-treatment, vs untreated) [%]	Total aerobic bacteria PCA +32, 30 min @45° C. (total aerobic bacteria [4])	level of aerobic spores (aerobic spores [5]; stagnant 2 d old broke, DGH 70 mg/l active 5 min, diluted, total contact time 35 min, +45° C., untreated 330 CFU/ml) [CFU/ml]	spore reduction (aerobic spores [5]; stagnant diluted broke, DGH 70 mg/l active) [%]	Bacterial killing efficacy (%) (total aerobic bacteria [6]; pulp consistency 0.1 w/w-%)	Total aerobic bacteria (+32° C., 2 d PCA) (total aerobic bacteria [6]; pulp consistency 0.1 w/w-%)	Bacterial killing efficacy (%) (total aerobic bacteria [6]; pulp consistency 3 w/w-%)	Total aerobic bacteria (+32° C., 2 d PCA) (total aerobic bacteria [6]; pulp consistency 3 w/w-%)	Bacterial killing efficacy (%) (total aerobic bacteria [6]; pulp consistency 6 w/w-%)	Total aerobic bacteria (+32° C., 2 d PCA) (total aerobic bacteria [6]; pulp consistency 6 w/w-%)	Aerobic spores PCA +32 30 min @45° C. (aerobic spores [3]; pasteurized +82° C. 10 min, sodium hypochlorite 5 ppm as active chlorine and/or DGH 100 ppm as active, untreated 13 000)	effect on bacterial spores (aerobic spores [3]; sodium hypochlorite 5 mg/l as active chlorine)
CCCCCCCCCCCCNC(=N)N [DGH, dodecylguanidine hydrochloride]	> 45	98	400	87	700	45	2 800 cfu/ml	2×10^6 CFU/ml	> 70	10 000 CFU/ml	120	> 60	100	300	78	9 000	55	77 000	–	–
OCl [sodium hypochlorite]	–	–	–	–	–	–	–	–	–	–	–	–	–	–	–	–	–	–	17 000 CFU/ml	did not have any effect on bacterial spores
